Assay results taken from ChEMBL document CHEMBL4007467, “Effects of 6-paradol, an unsaturated ketone from gingers, on cytochrome P450-mediated drug metabolism” (Bioorg Med Chem Lett, 2017).

How the values were obtained:
Type in all cases: ADME
CYP2C8 [1] = target: T1, CYP2C8 (Homo sapiens, UniProt P10632); test: Inhibition of CYP2C8 in human liver microsomes assessed as enzyme-mediated metabolite formation at 3 uM using paclitaxel as substrate incubated for 5 mins followed by NADPH addition measured after 30 mins by LC-MS/MS analysis relative to control; parameters: scale not given: the % may be the effect or the level left; conditions: probe paclitaxel, read-out: Activity
T1 sequence (P10632 whole entry): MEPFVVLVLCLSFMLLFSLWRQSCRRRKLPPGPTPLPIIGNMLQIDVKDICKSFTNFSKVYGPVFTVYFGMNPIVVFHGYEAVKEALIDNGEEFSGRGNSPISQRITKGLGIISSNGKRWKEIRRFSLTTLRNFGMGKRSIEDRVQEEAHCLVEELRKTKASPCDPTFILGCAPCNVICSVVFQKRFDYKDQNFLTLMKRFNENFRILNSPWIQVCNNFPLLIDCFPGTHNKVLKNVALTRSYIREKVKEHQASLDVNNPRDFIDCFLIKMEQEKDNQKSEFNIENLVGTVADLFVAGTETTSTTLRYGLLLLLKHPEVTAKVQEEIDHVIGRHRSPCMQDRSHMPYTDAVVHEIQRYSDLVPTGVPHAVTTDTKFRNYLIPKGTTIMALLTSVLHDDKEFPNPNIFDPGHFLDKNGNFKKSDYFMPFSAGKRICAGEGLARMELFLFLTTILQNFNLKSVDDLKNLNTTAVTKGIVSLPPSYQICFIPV

Cytochrome P450 2C8 = target: T2, Cytochrome P450 2C8 (Homo sapiens, UniProt P10632); test: Inhibition of CYP2C8 in human liver microsomes assessed as enzyme-mediated metabolite formation using paclitaxel as substrate incubated for 5 mins followed by NADPH addition measured after 30 mins by LC-MS/MS analysis
T2 sequence (P10632 whole entry): T1 sequence (P10632 whole entry)

CYP2C9 [2] = target: T3, CYP2C9 (Homo sapiens, UniProt P11712); test: Inhibition of CYP2C9 in human liver microsomes assessed as enzyme-mediated metabolite formation at 1 uM using diclofenac as substrate incubated for 5 mins followed by NADPH addition measured after 30 mins by LC-MS/MS analysis relative to control; parameters: scale not given: the % may be the effect or the level left; conditions: probe diclofenac, read-out: Activity
CYP2C9 [3] = target: T3, CYP2C9; test: Inhibition of CYP2C9 in human liver microsomes assessed as enzyme-mediated metabolite formation at 3 uM using diclofenac as substrate incubated for 5 mins followed by NADPH addition measured after 30 mins by LC-MS/MS analysis relative to control; parameters: scale not given: the % may be the effect or the level left; conditions: probe diclofenac, read-out: Activity
CYP3A4 [4] = target: T4, CYP3A4 (Homo sapiens, UniProt P08684); test: Inhibition of CYP3A4 in human liver microsomes assessed as enzyme-mediated metabolite formation at 0.1 uM using testosterone as substrate incubated for 5 mins followed by NADPH addition measured after 30 mins by LC-MS/MS analysis relative to control; parameters: scale not given: the % may be the effect or the level left; conditions: probe testosterone, read-out: Activity
CYP2A6 [5] = target: T5, CYP2A6 (Homo sapiens, UniProt P11509); test: Inhibition of CYP2A6 in human liver microsomes assessed as enzyme-mediated metabolite formation at 0.1 uM using coumarin as substrate preincubated for 20 mins followed by substrate addition measured after 30 mins in presence of NADPH by LC-MS/MS analysis relative to control; parameters: scale not given: the % may be the effect or the level left; conditions: probe coumarin, read-out: Activity
T5 sequence (P11509 whole entry): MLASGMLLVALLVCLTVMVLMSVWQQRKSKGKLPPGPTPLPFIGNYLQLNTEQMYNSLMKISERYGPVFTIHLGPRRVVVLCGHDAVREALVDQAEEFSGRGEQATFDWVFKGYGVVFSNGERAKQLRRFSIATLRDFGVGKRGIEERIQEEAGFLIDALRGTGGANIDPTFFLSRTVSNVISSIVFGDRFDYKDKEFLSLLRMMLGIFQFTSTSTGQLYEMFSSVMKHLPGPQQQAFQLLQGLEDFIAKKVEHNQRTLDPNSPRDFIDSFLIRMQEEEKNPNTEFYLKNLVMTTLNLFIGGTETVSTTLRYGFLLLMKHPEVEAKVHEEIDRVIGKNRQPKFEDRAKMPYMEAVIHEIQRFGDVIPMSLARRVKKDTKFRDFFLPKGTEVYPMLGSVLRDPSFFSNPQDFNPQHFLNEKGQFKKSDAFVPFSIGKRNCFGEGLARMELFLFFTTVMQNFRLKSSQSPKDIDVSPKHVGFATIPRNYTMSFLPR

CYP2A6 [6] = target: T5, CYP2A6; test: Inhibition of CYP2A6 in human liver microsomes assessed as enzyme-mediated metabolite formation at 30 uM using coumarin as substrate preincubated for 20 mins followed by substrate addition measured after 30 mins in presence of NADPH by LC-MS/MS analysis relative to control; parameters: scale not given: the % may be the effect or the level left; conditions: probe coumarin, read-out: Activity
Cytochrome P450 2B6 = target: T6, Cytochrome P450 2B6 (Homo sapiens, UniProt P20813); test: Inhibition of CYP2B6 in human liver microsomes using bupropion as substrate preincubated for 20 mins followed by substrate addition measured after 30 mins in presence of NADPH by LC-MS/MS analysis
T6 sequence (P20813 whole entry): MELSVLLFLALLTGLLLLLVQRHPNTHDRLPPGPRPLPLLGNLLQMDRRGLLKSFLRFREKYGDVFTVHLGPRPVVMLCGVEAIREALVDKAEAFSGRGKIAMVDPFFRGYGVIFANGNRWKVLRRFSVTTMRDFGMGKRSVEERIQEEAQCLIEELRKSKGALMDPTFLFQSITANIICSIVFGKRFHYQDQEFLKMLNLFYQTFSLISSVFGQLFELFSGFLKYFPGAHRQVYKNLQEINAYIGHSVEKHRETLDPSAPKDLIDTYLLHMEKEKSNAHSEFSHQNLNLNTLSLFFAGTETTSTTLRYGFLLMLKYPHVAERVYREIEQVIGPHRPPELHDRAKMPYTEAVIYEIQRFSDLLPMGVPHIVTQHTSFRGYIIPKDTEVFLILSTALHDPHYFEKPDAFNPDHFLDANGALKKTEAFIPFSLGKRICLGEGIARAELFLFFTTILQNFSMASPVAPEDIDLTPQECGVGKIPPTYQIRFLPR

CYP2C8 [7] = target: T1, CYP2C8; test: Inhibition of CYP2C8 in human liver microsomes assessed as enzyme-mediated metabolite formation at 30 uM using paclitaxel as substrate preincubated for 20 mins followed by substrate addition measured after 30 mins in presence of NADPH by LC-MS/MS analysis relative to control; parameters: scale not given: the % may be the effect or the level left; conditions: probe paclitaxel, read-out: Activity
CYP2D6 = CYP2D6 (Homo sapiens, UniProt P10635); test: Inhibition of CYP2D6 in human liver microsomes assessed as enzyme-mediated metabolite formation at 1 uM using dextromethorphan as substrate preincubated for 20 mins followed by substrate addition measured after 30 mins in presence of NADPH by LC-MS/MS analysis relative to control; parameters: scale not given: the % may be the effect or the level left; conditions: probe dextromethorphan, read-out: Activity
CYP3A4 [8] = target: T4, CYP3A4; test: Inhibition of CYP3A4 in human liver microsomes assessed as enzyme-mediated metabolite formation at 10 uM using testosterone as substrate preincubated for 20 mins followed by substrate addition measured after 30 mins in presence of NADPH by LC-MS/MS analysis relative to control; parameters: scale not given: the % may be the effect or the level left; conditions: probe testosterone, read-out: Activity

T4 sequence (P08684 whole entry): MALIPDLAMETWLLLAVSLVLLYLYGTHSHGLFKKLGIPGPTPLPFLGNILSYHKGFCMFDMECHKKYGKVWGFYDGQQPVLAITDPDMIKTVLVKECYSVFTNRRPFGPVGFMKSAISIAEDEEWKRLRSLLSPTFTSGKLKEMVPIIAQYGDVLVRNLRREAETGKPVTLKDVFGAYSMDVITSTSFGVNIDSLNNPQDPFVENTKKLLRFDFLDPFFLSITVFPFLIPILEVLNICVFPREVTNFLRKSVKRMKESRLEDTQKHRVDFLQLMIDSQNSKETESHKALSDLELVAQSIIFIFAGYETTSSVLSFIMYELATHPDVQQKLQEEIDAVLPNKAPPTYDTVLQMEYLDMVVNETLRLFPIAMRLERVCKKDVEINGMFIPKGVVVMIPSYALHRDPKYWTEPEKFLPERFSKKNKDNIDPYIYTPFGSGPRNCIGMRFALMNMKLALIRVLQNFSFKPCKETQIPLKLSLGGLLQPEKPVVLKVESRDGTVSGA
T3 sequence (P11712 whole entry): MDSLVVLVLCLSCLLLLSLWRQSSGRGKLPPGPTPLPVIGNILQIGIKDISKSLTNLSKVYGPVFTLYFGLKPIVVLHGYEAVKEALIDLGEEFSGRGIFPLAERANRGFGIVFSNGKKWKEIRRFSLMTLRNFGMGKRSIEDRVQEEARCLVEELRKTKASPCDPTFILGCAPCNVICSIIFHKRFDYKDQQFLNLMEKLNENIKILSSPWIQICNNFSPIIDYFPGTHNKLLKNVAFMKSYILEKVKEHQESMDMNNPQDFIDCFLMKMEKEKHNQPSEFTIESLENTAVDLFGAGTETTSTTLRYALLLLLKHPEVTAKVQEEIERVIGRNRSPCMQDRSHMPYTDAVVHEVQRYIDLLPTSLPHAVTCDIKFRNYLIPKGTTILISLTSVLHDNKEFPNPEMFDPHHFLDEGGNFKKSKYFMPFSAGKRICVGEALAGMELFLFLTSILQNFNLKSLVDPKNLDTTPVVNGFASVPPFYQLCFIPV
Sequence of CYP2D6 (P10635 whole entry): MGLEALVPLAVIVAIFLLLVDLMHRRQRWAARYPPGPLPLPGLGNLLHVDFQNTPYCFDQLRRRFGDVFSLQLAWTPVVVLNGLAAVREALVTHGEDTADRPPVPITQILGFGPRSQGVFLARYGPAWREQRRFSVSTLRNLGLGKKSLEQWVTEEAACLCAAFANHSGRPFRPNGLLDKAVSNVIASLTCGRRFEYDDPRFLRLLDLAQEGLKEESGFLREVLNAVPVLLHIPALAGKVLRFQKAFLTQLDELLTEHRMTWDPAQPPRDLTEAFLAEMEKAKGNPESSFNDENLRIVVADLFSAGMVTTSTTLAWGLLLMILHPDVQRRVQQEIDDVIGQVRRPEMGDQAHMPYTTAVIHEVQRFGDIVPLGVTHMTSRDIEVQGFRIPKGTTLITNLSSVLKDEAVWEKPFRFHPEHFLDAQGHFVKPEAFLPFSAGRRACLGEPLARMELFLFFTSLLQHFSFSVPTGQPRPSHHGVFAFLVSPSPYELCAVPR

activity at 0.5 h, 3 µM (CYP2C8 [1]): 58.7%
IC50 (Cytochrome P450 2C8): 5.1 µM
activity at 0.5 h, 1 µM (CYP2C9 [2]): 76.6%
activity at 0.5 h, 3 µM (CYP2C9 [3]): 68.1%
activity at 0.5 h, 0.1 µM (CYP3A4 [4]): 100%
activity at 0.5 h, 0.1 µM (CYP2A6 [5]): 96.5%
activity at 0.5 h, 30 µM (CYP2A6 [6]): 79.9%
IC50 (Cytochrome P450 2B6): 6.3 µM
activity at 0.5 h, 30 µM (CYP2C8 [7]): 40.2%
activity at 0.5 h, 1 µM (CYP2D6): 92.2%
activity at 0.5 h, 10 µM (CYP3A4 [8]): 83.6%
SMILES: CCCCCCCC(=O)CCc1ccc(O)c(OC)c1
